Patent US20250163047A1, “HETEROCYCLIC COMPOUNDS, COMPOSITIONS THEREOF, AND METHODS OF TREATMENT THEREWITH” (BeiGene, Ltd., priority 2022, published 2025)

What was measured:
Cbl-b (aa36-427) = target: T1, Cbl-b (aa36-427) (Homo sapiens, UniProt Q13191); assay: Co-expressed Cbl-b with BirA biochemical assay (CBLB/E2-Ub binding, HTRF); details: 0.6 nM Cbl-b co-expressed with BirA, HTRF; read-out: co-express CBLB/E2-Ub-binding assay IC50
T1 construct: Cbl-b (aa36-427, in-house); made in house
Text: (§1) The assay in the absence of a Cbl-b/Cbl inhibitor, where phosphorylation of Cbl-b/Cbl by the Src kinase allows UbcH5B-Ub to bind to Cbl-b/Cbl and brings the Bodipy-Fluorescein tagged ubiquitin in proximity to the streptavidin-terbium bound to the N-terminal biotinylated Avi-tagged Cbl-b/Cbl. […] The lack of a FRET signal indicates Cbl-b/Cbl is inhibited by the Cbl-b/Cbl inhibitor.

Cbl (aa49-434) = target: T2, Cbl (aa49-434) (Homo sapiens, UniProt P22681); assay: Co-expressed Cbl with BirA biochemical assay (CBL/E2-Ub binding, HTRF); details: 0.6 nM Cbl co-expressed with BirA, read-out: co-express CBL/E2-Ub-binding assay IC50
T2 construct: Cbl (aa49-434, in-house); made in house
T2 sequence (P22681 49-434): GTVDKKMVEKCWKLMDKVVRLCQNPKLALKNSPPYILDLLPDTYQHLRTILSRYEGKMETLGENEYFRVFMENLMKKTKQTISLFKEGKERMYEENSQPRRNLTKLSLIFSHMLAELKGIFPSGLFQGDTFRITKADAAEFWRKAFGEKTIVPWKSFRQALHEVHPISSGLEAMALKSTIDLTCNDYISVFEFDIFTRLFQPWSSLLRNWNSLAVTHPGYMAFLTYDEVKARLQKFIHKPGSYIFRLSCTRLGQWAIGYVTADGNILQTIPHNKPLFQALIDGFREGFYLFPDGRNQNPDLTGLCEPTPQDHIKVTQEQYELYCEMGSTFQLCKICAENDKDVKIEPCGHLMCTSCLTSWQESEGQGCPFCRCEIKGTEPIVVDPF
Text: as §1

T1 sequence (Q13191 36-427): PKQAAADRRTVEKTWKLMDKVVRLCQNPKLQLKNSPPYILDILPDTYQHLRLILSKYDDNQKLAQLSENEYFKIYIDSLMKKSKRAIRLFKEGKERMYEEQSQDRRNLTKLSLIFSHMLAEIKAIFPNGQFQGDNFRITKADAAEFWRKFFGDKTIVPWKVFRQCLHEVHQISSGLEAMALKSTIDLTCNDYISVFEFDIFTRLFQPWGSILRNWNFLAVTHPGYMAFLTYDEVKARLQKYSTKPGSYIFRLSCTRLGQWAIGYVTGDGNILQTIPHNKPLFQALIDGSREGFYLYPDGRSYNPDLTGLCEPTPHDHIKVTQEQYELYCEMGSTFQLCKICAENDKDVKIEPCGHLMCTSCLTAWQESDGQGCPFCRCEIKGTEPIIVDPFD

Compound	IC50 (Cbl-b (aa36-427))	IC50 (Cbl (aa49-434))
C[C@@H]1CN(Cc2cc(C(=O)Nc3cncc([C@]4(c5nncn5C)C[C@@H](C)C4)c3)c3nccn3c2)CC[C@@H]1F [Compound A54, 6-(((3R,4S)-4-fluoro-3-methylpiperidin-1-yl)methyl)-N-(5-((1s,3S)-3-methyl-1-(4-methyl-4H-1,2,4-triazol-3-yl)cyclobutyl)pyridin-3-yl)imidazo[1,2-a]pyridine-8-carboxamide]	1.9 nM	6 nM
Cn1cnnc1[C@]1(c2cccc(NC(=O)c3cc(CNCC4(C)CCC4)cn4ccnc34)c2)C[C@H](CC#N)C1 [Compound A30, N-(3-((1s, 3s)-3-(cyanomethyl)-1-(4-methyl-4H-1,2,4-triazol-3-yl)cyclobutyl)phenyl)-6-((((1-methylcyclobutyl)methyl)amino)methyl)imidazo[1,2-a]pyridine-8-carboxamide]	0.6 nM	6.4 nM
C[C@H](NCc1cc(C(=O)Nc2cccc([C@]3(c4nncn4C)C[C@@H](CC#N)C3)c2)c2ncc(Cl)n2c1)C1CCCC1 [Compound A34, 3-chloro-N-(3-((1s,3R)-3-(cyanomethyl)-1-(4-methyl-4H-1,2,4-triazol-3-yl)cyclobutyl)phenyl)-6-((((S)-1-cyclopentylethyl)amino)methyl)imidazo[1,2-a]pyridine-8-carboxamide]	2.6 nM	7.8 nM
Cc1cnc2c(C(=O)Nc3cccc([C@]4(c5nncn5C)C[C@@H](C)C4)c3)cc(CN[C@@H](C)C3CCC3)cn12 [Compound A60, 6-((((S)-1-cyclobutylethyl)amino)methyl)-3-methyl-N-(3-((1s,3R)-3-methyl-1-(4-methyl-4H-1,2,4-triazol-3-yl)cyclobutyl)phenyl)imidazo[1,2-a]pyridine-8-carboxamide]	0.5 nM	1.1 nM
Cn1cnnc1[C@]1(c2cncc(NC(=O)c3cc(CNC4(C)CC4)cn4ncnc34)c2)C[C@H](C)C1 [Compound A88, N-(5-((1s, 3s)-3-methyl-1-(4-methyl-4H-1,2,4-triazol-3-yl)cyclobutyl)pyridin-3-yl)-6-(((1-methylcyclopropyl)amino)methyl)-[1,2,4]triazolo[1,5-a]pyridine-8-carboxamide]	4.4 nM	20 nM
Cn1cnnc1[C@]1(c2cncc(NC(=O)c3cc(CNC4(C)CCC4)c4[nH]cc(Cl)c4n3)c2)C[C@H](C)C1 [Compound B52, 3-chloro-N-(5-((1s, 3s)-3-methyl-1-(4-methyl-4H-1,2,4-triazol-3-yl)cyclobutyl)pyridin-3-yl)-7-(((1-methylcyclobutyl)amino)methyl)-1H-pyrrolo[3,2-b]pyridine-5-carboxamide]	5 nM	19 nM
Cn1cnnc1[C@]1(c2cncc(NC(=O)c3cc(CNCC4CCC4)c4ccsc4n3)c2)C[C@H](C)C1 [Compound B15, 4-(((cyclobutylmethyl)amino)methyl)-N-(5-((1s, 3s)-3-methyl-1-(4-methyl-4H-1,2,4-triazol-3-yl)cyclobutyl)pyridin-3-yl)thieno[2,3-b]pyridine-6-carboxamide]	0.9 nM	1.9 nM
Cn1cnnc1[C@]1(c2cccc(NC(=O)c3cc(CNCC4(C)CCCC4)cn4ccnc34)c2)C[C@H](CC#N)C1 [Compound A15, N-(3-((1s, 3s)-3-(cyanomethyl)-1-(4-methyl-4H-1,2,4-triazol-3-yl)cyclobutyl)phenyl)-6-((((1-methylcyclopentyl)methyl)amino)methyl)imidazo[1,2-a]pyridine-8-carboxamide]	0.9 nM	4 nM
CC(C)CNCc1cc(C(=O)Nc2cncc([C@]3(c4nncn4C)C[C@@H](C)C3)c2)c2ncc(Cl)n2c1 [Compound A83, 3-chloro-6-((isobutylamino)methyl)-N-(5-((1s, 3s)-3-methyl-1-(4-methyl-4H-1,2,4-triazol-3-yl)cyclobutyl)pyridin-3-yl)imidazo[1,2-a]pyridine-8-carboxamide]	1 nM	1.7 nM
Cn1cnnc1[C@]1(c2cccc(NC(=O)c3cc(CNCC(C)(C)C)cn4ccnc34)c2)C[C@H](CC#N)C1 [Compound A32, N-(3-((1s, 3s)-3-(cyanomethyl)-1-(4-methyl-4H-1,2,4-triazol-3-yl)cyclobutyl)phenyl)-6-((neopentylamino)methyl)imidazo[1,2-a]pyridine-8-carboxamide]	1.1 nM	4.9 nM
CCn1cnnc1[C@]1(c2cccc(NC(=O)c3cc(CNC4(C)CC4)cn4ccnc34)c2)C[C@H](C)C1 [Compound A85, N-(3-((1s, 3s)-1-(4-ethyl-4H-1,2,4-triazol-3-yl)-3-methylcyclobutyl)phenyl)-6-(((1-methylcyclopropyl)amino)methyl)imidazo[1,2-a]pyridine-8-carboxamide]	3.4 nM	26 nM
Cn1cnnc1[C@]1(c2cccc(NC(=O)c3cc(CNCC4CCC4)c4[nH]cc(F)c4n3)c2)C[C@H](C)C1 [Compound B36, 7-(((cyclobutylmethyl)amino)methyl)-3-fluoro-N-(3-((1s, 3s)-3-methyl-1-(4-methyl-4H-1,2,4-triazol-3-yl)cyclobutyl)phenyl)-1H-pyrrolo[3,2-b]pyridine-5-carboxamide]	0.8 nM	2.3 nM
Cn1cnnc1[C@]1(c2cccc(NC(=O)c3cc(CNC4(C)CC4)cn4c(Cl)cnc34)c2)C[C@H](C)C1 [Compound A67, 3-chloro-N-(3-((1s, 3s)-3-methyl-1-(4-methyl-4H-1,2,4-triazol-3-yl)cyclobutyl)phenyl)-6-(((1-methylcyclopropyl)amino)methyl)imidazo[1,2-a]pyridine-8-carboxamide]	0.5 nM	2.8 nM
C[C@H]1CCCN(Cc2cc(C(=O)Nc3cccc([C@]4(c5nncn5C)C[C@@H](C)C4)c3)c3nc(F)cn3c2)C1 [Compound A8, 2-fluoro-N-(3-((1s,3R)-3-methyl-1-(4-methyl-4H-1,2,4-triazol-3-yl)cyclobutyl)phenyl)-6-(((S)-3-methylpiperidin-1-yl)methyl)imidazo[1,2-a]pyridine-8-carboxamide]	6 nM	18.7 nM

The remaining lines, values ahead:

IC50 (Cbl-b (aa36-427))	IC50 (Cbl (aa49-434))	Compound
1.5 nM	25.1 nM	Cn1cnnc1[C@]1(c2cccc(NC(=O)c3cc(CNC4(C)CCC4)c4c(n3)C(F)(F)CC4)c2)C[C@H](CC#N)C1 [Compound C42, N-(3-((1s, 3s)-3-(cyanomethyl)-1-(4-methyl-4H-1,2,4-triazol-3-yl)cyclobutyl)phenyl)-7,7-difluoro-4-(((1-methylcyclobutyl)amino)methyl)-6,7-dihydro-5H-cyclopenta[b]pyridine-2-carboxamide]
1.3 nM	5.1 nM	C[C@H](NCc1cc(C(=O)Nc2cccc([C@]3(c4nncn4C)C[C@@H](C)C3)c2)nc2c1OCC2(C)C)C1CCCC1 [Compound C34, 7-((((S)-1-cyclopentylethyl)amino)methyl)-3,3-dimethyl-N-(3-((1s,3R)-3-methyl-1-(4-methyl-4H-1,2,4-triazol-3-yl)cyclobutyl)phenyl)-2,3-dihydrofuro[3,2-b]pyridine-5-carboxamide]
1.3 nM	6.8 nM	Cn1cnnc1[C@]1(c2cccc(NC(=O)c3cc(CNC4CCCCCC4)c4c(n3)C(C)(C)CC4)c2)C[C@H](CC#N)C1 [Compound C54, N-(3-((1s, 3s)-3-(cyanomethyl)-1-(4-methyl-4H-1,2,4-triazol-3-yl)cyclobutyl)phenyl)-4-((cycloheptylamino)methyl)-7,7-dimethyl-6,7-dihydro-5H-cyclopenta[b]pyridine-2-carboxamide]
1 nM	1.8 nM	C[C@H]1CCCN(Cc2cc(C(=O)Nc3cccc([C@]4(Cc5nncn5C)C[C@@H](C#N)C4)c3)nc3c2CCC3(C)C)C1 [Compound C8, N-(3-((1r,3S)-3-cyano-1-((4-methyl-4H-1,2,4-triazol-3-yl)methyl)cyclobutyl)phenyl)-7,7-dimethyl-4-(((S)-3-methylpiperidin-1-yl)methyl)-6,7-dihydro-5H-cyclopenta[b]pyridine-2-carboxamide]
2 nM	6.6 nM	Cn1cnnc1[C@]1(c2cccc(NC(=O)c3cc(CNCC4CCCCC4)c4c(n3)C(C)(C)CC4)c2)C[C@H](CC#N)C1 [Compound C14, N-(3-((1s, 3s)-3-(cyanomethyl)-1-(4-methyl-4H-1,2,4-triazol-3-yl)cyclobutyl)phenyl)-4-(((cyclohexylmethyl)amino)methyl)-7,7-dimethyl-6,7-dihydro-5H-cyclopenta[b]pyridine-2-carboxamide]
0.9 nM	3.4 nM	Cn1cnnc1[C@]1(c2cccc(NC(=O)c3cc(CNCC4CCC4)c4c(n3)C(C)(C)CC4)c2)C[C@H](C)C1 [Compound C57, 4-(((cyclobutylmethyl)amino)methyl)-7,7-dimethyl-N-(3-((1s, 3s)-3-methyl-1-(4-methyl-4H-1,2,4-triazol-3-yl)cyclobutyl)phenyl)-6,7-dihydro-5H-cyclopenta[b]pyridine-2-carboxamide]
